Several values for one entry are separate records, joined by “and”; a condition that tells them apart may be missing. Equal entries are not always repeated.
Tests used:
[1] = tested on: PSMA-positive cells LNCap; assay: Uptake of labeled compounds by PSMA-positive cells LNCap; type: cell-based; conditions: 37° C., 0.5 h
Description: LNCap cells (Shangcheng Beina Chuanglian Biotechnology Co., Ltd., Industrial Park, Chengguan Town, Shangcheng County, Xinyang City, Henan Province) were revived and passaged for expansion. After the cells were expanded to a sufficient amount, cells were seeded in a 24-well plate at a density of 1×10^4 cells/well. Uptake tests were performed when cells grew to 80%-90% confluence.
The above labeled compounds ^177Lu-E1, ^177Lu-E2, ^177Lu-E3, ^177Lu-E5, ^177Lu-E9, ^177Lu-E14 and ^177Lu-PSMA-617 were diluted with serum-free medium into 10000, 1000, 100, 10, 1, 0.1 and 0 nM. 1 mL of the diluted solution was added to a 24-well plate, and incubated at 37° C. for 0.5 h. The supernatant was discarded and the cells were washed 3 times with PBS. 250 μL of 1M NaOH solution was added to each well. The cells were pipetted until they were completely dissolved, and transferred to a scintillation vial. 250 μL of NaOH solution was added to each well again to wash the bottom of the well and transferred to a scintillation vial. 2 mL of scintillation fluid was added to each scintillation vial and shaken well. A liquid scintillation counter was used to detect radioactive counts in each vial.

[2] = In vivo metabolism test of 177Lu-labeled complex in SD rats (plasma radioactive counts); conditions: for plasma radioactive counts: individual rat, 100 μL plasma; for plasma radioactive counts, MEAN: mean of rats
Description: Eighteen SD rats (Hangzhou Ziyuan Experimental Animal Technology Co., Ltd.), male, weighing 180-200 g, were randomly divided into 6 groups, 3 rats in each group. […] of the labeled precursor compound was injected into the tail vein of each mouse. 250 μL of orbital blood was collected into anticoagulant tubes at 5 min, 0.5 h, 1 h, 2 h, 4 h, 8 h and 24 h after administration. Blood was centrifuged at 3000 rpm for 10 min, and 100 μL of plasma was taken into scintillation vials. 2 mL of scintillation fluid was added to each scintillation vial and shaken well. A liquid scintillation counter was used to detect radioactive counts in each vial.

[3] = In vivo distribution in healthy SD rats; conditions: intravenous, FIG. 7
Description: In vivo distribution in healthy rats: Radiolabeled E series compounds were injected into the tail vein of SD rats aged 6-9 weeks (Hangzhou Ziyuan Testal Animal Technology Co., Ltd.) (about 7.4 MBq/mouse, specific activity: 84200.14 kBq/μg). At different time points (0.25, 0.5, 1, 2, 4, 6, 24, 48, 72 h) after administration of labeled compounds to SD rats, the animals were euthanized by carbon dioxide inhalation, and the blood and […] viscera (blood, liver, spleen, lungs, heart, muscle, pancreas, testes) of the animals were collected after euthanasia.
Blood was collected through the abdominal aorta, and immediately after collection, 100 μL was quantified into a designated centrifuge tube (weighed). After the viscera were collected, they were washed twice with deionized water, wiped dry, put into a pre-weighed test tube, and weighed again. The weight of samples was calculated. The sample was measured on the day of collection. All blood samples and tissue samples were measured for radioactive counts using a gamma counter.

22rv1 tumor = assay: Tissue distribution in PSMA-positive 22rv1 tumor-bearing mice; type: in vivo; conditions: tail vein, FIG. 8
Description: Tissue distribution in PSMA-positive tumor-bearing mice: About 6-9 weeks old (Nod scid) mice (Jiangsu Huajing Molecular Imaging and Drug Research Institute Co., Ltd.) were inoculated subcutaneously with 5×10^6 cells of 22rv1 (in 50% Matrigel, Corning) on the right shoulder of animals. When the tumor grew to a size of about 150-350 mm^3, ^177Lu-E3 radiolabeled compound was injected into the tail vein of the mouse (about 7.4 MBq/mouse, specific activity: 22423.82 KBq/μg). The animals were euthanized by carbon dioxide inhalation at 0.25, 0.5, 1, 6, 24, 72, 144, and 168 hours respectively after administration. Blood and viscera (blood, liver, spleen, lung, heart, muscle, pancreas, testis, tumor) were collected from animals after euthanasia.
Blood was collected through the abdominal aorta, and immediately after collection, 100 μL was quantified into a designated centrifuge tube (weighed). After the viscera were collected, they were washed twice with deionized water and wiped dry. The viscera were put into a pre-weighed test tube, and weighed again. The weight of the sample was calculated. The sample was measured on the day of collection. All blood samples and tissue samples were measured for radioactive counts using a gamma counter, and the results are shown in FIG. 8.

[4] = tested on: 22rv1 PSMA-expressing tumors; assay: SPECT imaging in 22rv1 tumor-bearing balb/c nude mice (effect example 10); type: in vivo; conditions: about 7.4 MBq/mouse tail vein
Description: About 4-5 weeks old (balb/c nude, Beijing Vital River) mice were subcutaneously inoculated with 5×10^6 cells of 22rv1 (in 50% Matrigel, Corning) on the right scapula of animals. When the tumor grew to a size of about 150-350 mm^3, after anesthesia with isoflurane, ^177Lu-PSMA-617, ^177Lu-E3, ^177Lu-E4, ^177Lu-E8, ^177Lu-E16, ^177Lu-E18, ^177Lu-E24 radiolabeled compounds were injected into the tail vein of mice (about 7.4 MBq/mouse, specific activity: 22423.82 KBq/μg). Subsequently, SPECT imaging was performed with a small animal SPECT-CT imaging system (U-SPECT+/CT, MI Labs) at 1 h, 5 h, 24 h, 48 h and 72 h, respectively. ^177Lu-PSMA-617 is shown in FIG. 9, ^177Lu-E3 is shown in FIG. 10, ^177Lu-E4 is shown in FIG. 11, ^177Lu-E8 is shown in FIG. 12, ^177Lu-E16 is shown in FIG. 13, ^177Lu-[…] is shown in FIG. 14, and ^177Lu-E24 is shown in FIG. 15. […] The main way of drug elimination is through the kidney.

22rv1 xenograft tumor = assay: Pharmacodynamic study in 22rv1 mouse xenograft tumor model (effect example 11); type: in vivo, mice; conditions: over the two dose groups
[5] = 5 min after tail vein injection
[6] = 0.5 h after tail vein injection

## O=C([O-])CN1CCN(CC(=O)[O-])CCN(CC(=O)N2CCc3cc(C(=O)NC(Cc4ccc5ccccc5c4)C(=O)NCCCCC(NC(=O)NC(CCC(=O)O)C(=O)O)C(=O)O)ccc3C2)CCN(CC(=O)[O-])CC1.[177Lu+3] (stereo not drawn) [^177Lu-E3]
[1]; 0.1 nM
  uptake by LNCap cells: 48 cpm
[1]; 1 nM
  uptake by LNCap cells: 95 cpm
[1]; 10 nM
  uptake by LNCap cells: 346 cpm
[1]; 100 nM
  uptake by LNCap cells: 555 cpm
[1]; 1000 nM
  uptake by LNCap cells: 903 cpm
[1]; 10000 nM
  uptake by LNCap cells: 3150 cpm
[2]; [5]
  plasma radioactive counts: 26791 cpm and 31372 cpm and 27797 cpm
  plasma radioactive counts, MEAN: 28653 cpm
[2]; [6]
  plasma radioactive counts: 10681 cpm and 8675 cpm and 8026 cpm
  plasma radioactive counts, MEAN: 9127 cpm
[2]; 1 h after tail vein injection
  plasma radioactive counts: 3448 cpm and 3676 cpm and 2916 cpm
  plasma radioactive counts, MEAN: 3347 cpm
[2]; 2 h after tail vein injection
  plasma radioactive counts: 539 cpm and 559 cpm and 458 cpm
  plasma radioactive counts, MEAN: 519 cpm
[2]; 4 h after tail vein injection
  plasma radioactive counts: 178 cpm and 135 cpm and 181 cpm
  plasma radioactive counts, MEAN: 165 cpm
[2]; 8 h after tail vein injection
  plasma radioactive counts: 154 cpm and 191 cpm and 184 cpm
  plasma radioactive counts, MEAN: 176 cpm
[2]; 24 h after tail vein injection
  plasma radioactive counts: 191 cpm and 175 cpm and 179 cpm
  plasma radioactive counts, MEAN: 182 cpm
[3]
  uptake in each organ: low
22rv1 tumor
  drug concentration in the tumor after 7 days: high drug concentration
  time of highest uptake in the tumor after administration: 2 h
  uptake in non-target organs: always low
[4]
  specific absorption in PSMA-expressing tumors after 72 hours: high specific absorption
  uptake of radioactivity in PSMA-expressing tumors compared with ^177Lu-PSMA-617: higher uptake of radioactivity
22rv1 xenograft tumor
  tumor growth inhibition rate: 71-80%
